Results reported in US8623916B2, “Polyunsaturated fatty acid and diol ester as an anti-acne agent” (Pierre Fabre Dermo-Cosmetique, priority 2008, dated 2014).

Tests used:
[1] = system: release of arachidonic acid and eicosanoids by HaCaT keratinocytes; assay: Arachidonic acid metabolism in [3H]AA-labeled HaCaT keratinocytes stimulated by PMA/A23187; assay type: cell-based, human; settings: HaCaT pretreated with PUFA 24 h, 500 nM PMA and 1 μM A23187 for 5 hours (FIGS. 4A-4C)
Experimental: HaCaT keratinocytes were incubated in 24-well plates in the presence of 1 μCi [^3H]AA for 18 hours under an atmosphere of 5% CO2. To test the capacity of
PUFAs to modulate the inflammatory response of keratinocytes, [^3H]-labeled HaCaT cells are pretreated with PUFAs for 24 hours, rinsed and then stimulated by 500 nM PMA and 1 μM A23187 for 5 hours. [^3H]AA and metabolites released by the HaCaT cells in the culture medium are extracted by column chromatography. The eluate is evaporated under N2. The dry residue is taken up in methanol and deposited on thin-layer silica plates activated beforehand for 1 hour at 100° C. The developing solvent is the organic phase of the mixture ethyl acetate/water/isooctane/acetic acid (110:100:50:20, v/v). [^3H]AA and metabolites (6-keto-prostaglandin F1α, 6k-PGF1α; prostaglandin (PG) FαE2D2; thromboxane (TX) B2, leukotrienes (LT) B4, C4, D4) are identified by a Berthold TLC scanner.

P. acnes strain = assay: Antibacterial activity of the diols, MIC micromethod in liquid medium, P. acnes strain; assay type: cell-based, Propionibacterium acnes
Experimental: Tests were carried out with eight microbial strains using the dilution method described below.
Minimum inhibitory concentrations (MICs) are determined using a micromethod in liquid medium. Successive 1/2 dilutions of the test products in culture medium (Trypcase Soy Broth) are carried out in 96-well microplates in a final volume of 0.1 ml. The wells are inoculated with 0.01 ml of the bacterial suspensions titrated at roughly 1×10^7 CFU/ml. The microplates are incubated in optimal growth conditions and the MIC is read visually.
The columns labeled “BS” represent the bacteriostatic activity and the columns labeled “BC” represent the bactericidal activity of the diols (1% corresponds to a concentration of 10 mg/ml).

[2] = system: Propionibacterium acnes ATCC6919; assay: Kinetics of antibacterial activity (residual CFU count), Propionibacterium acnes; assay type: cell-based; settings: for Log R: P. acnes
Excerpt: (§1) The kinetics of the antibacterial activity of 1,2-octanediol were studied by evaluating the lethality of the bacteria over time by counting residual colony-forming units (CFUs) after contact of the test solution with the bacterial suspension.
(§2) The bacterial strains used are: Staphylococcus aureus ATCC6538 and Propionibacterium acnes ATCC6919. The culture medium used for Staphylococcus aureus ATCC6538 is Trypcase Soy Agar whereas the culture medium used for Propionibacterium acnes ATCC6919 is Schaedler agar. Stock solutions containing 1% and 0.5% 1,2-octanediol are prepared extemporaneously in 1% Polysorbate 20 (qsp WFI) and then adjusted to pH 7 with 0.1 N NaOH solution.
(§3) A volume of 5 ml of each stock solution is inoculated with 50 μl bacterial suspension titrated at roughly 1×10^8 CFU/ml.
(§4) After each time of contact (contact times tested: 5 min, 15 min, 30 min and 60 min), residual bacteria are counted by taking a 1 ml aliquot neutralized by 9 ml Trypcase Soy Broth and 10% Polysorbate 80.
(§5) Counting is carried out by adding 1 ml neutralized mixture and four 1/10 serial dilutions to the corresponding agar plates.
(§6) The agar plates are incubated at 36° C.±1° C. in aerobic atmosphere for S. aureus and anaerobic atmosphere for P. acnes (Generbag anaer, Biomerieux) for 72 hours and then the CFUs are counted.
(§7) • with R meaning “reduction”. It refers to the ratio between the number of inoculated bacteria and the number of residual bacteria after contact of the test solution with the bacterial suspension.

[3] = system: Staphylococcus aureus ATCC6538; assay: Kinetics of antibacterial activity (residual CFU count), Staphylococcus aureus; assay type: cell-based; settings: S. aureus
Excerpt: as §1, §2, §3, §4, §5, §6, §7

[4] = system: interleukin 8 release by human HaCaT keratinocytes; settings: 24 h with PUFA, then PMA/A23187 for 6 h (FIG. 3)
Experimental: The anti-inflammatory potential of the PUFAs was tested on human keratinocytes (HaCaT) stimulated by PMA/A23187. The changes induced by these PUFAs are evaluated on the production of eicosanoids and an inflammatory cytokine, interleukin 8, during an inflammatory process triggered by PMA/A23187. HaCaT cells are incubated on 96-well plates for 24 h in the presence of PUFAs, rinsed and then stimulated by PMA/A23187. The supernatants are recovered after 6 h of stimulation and IL-8 is quantified using the OptEIA™ ELISA kit (BD Pharmingen).

`CC/C=C\C/C=C\C/C=C\C/C=C\CCCCC(=O)O` [stearidonic acid] was tested, and the “release of arachidonic acid” value [1] was “significantly inhibits”, the “release of cyclooxygenated metabolites” value [1] was “significantly inhibits” and the “release of lipoxygenated metabolites” value [1] was “significantly inhibits”.

For `CCCCCCC(O)CCO` (stereo not drawn) [1,3-nonanediol], the “bactericidal effect concentration (BC)” value (P. acnes strain) was 3.12 mg/mL and the “bacteriostatic effect concentration (BS)” value (P. acnes strain) was 1.56 mg/mL.

For `CCCCCCC(O)CO` (stereo not drawn) [1,2-octanediol], the “decrease of the population of P. acnes” value ([2]; 0.5%, physiological pH, one hour of contact) was “greater than 99.9%”, the “Log R” value ([2]; 0.5%, pH 7, contact 5 min) was 0.2 and the “Log R” value ([2]; 0.5%, pH 7, contact 15 min) was 0.7. For the same compound, the “Log R” value ([2]; 0.5%, pH 7, contact 30 min) was 1.8, the “Log R” value ([2]; 0.5%, pH 7, contact 60 min) was 3 and the “Log R” value ([2]; 1%, pH 7, contact 5 min) was >5. For the same compound, the “Log R” value ([2]; 1%, pH 7, contact 15 min) was >5, the “Log R” value ([2]; 1%, pH 7, contact 30 min) was >5 and the “Log R” value ([2]; 1%, pH 7, contact 60 min) was >5. The “Log R” value ([3]; 0.5%, pH 7, contact 5 min) was 0.4, the “Log R” value ([3]; 0.5%, pH 7, contact 15 min) was 0.1 and the “Log R” value ([3]; 0.5%, pH 7, contact 30 min) was 0.2. For the same compound, the “Log R” value ([3]; 0.5%, pH 7, contact 60 min) was 0.5, the “Log R” value ([3]; 1%, pH 7, contact 5 min) was >5.3 and the “Log R” value ([3]; 1%, pH 7, contact 15 min) was >5.3. For the same compound, the “Log R” value ([3]; 1%, pH 7, contact 30 min) was >5.3 and the “Log R” value ([3]; 1%, pH 7, contact 60 min) was >5.3.

For `CCCCC/C=C\C/C=C\CCCCCCCC(=O)O` [linoleic acid], the “release of arachidonic acid” value [1] was “significantly inhibits”, the “release of cyclooxygenated metabolites” value [1] was “significantly inhibits” and the “release of lipoxygenated metabolites” value [1] was “significantly inhibits”.

With `CCCCC/C=C\C/C=C\C/C=C\CCCCC(=O)O` [γ-linolenic acid] the “effect on IL-8 secretion of stimulated keratinocytes” value [4] was “inhibitory effect”.

For `CC/C=C\C/C=C\C/C=C\CCCCCCCC(=O)O` [α-linolenic acid], the “release of arachidonic acid” value [1] was “significantly inhibits”, the “release of cyclooxygenated metabolites” value [1] was “significantly inhibits” and the “release of lipoxygenated metabolites” value [1] was “significantly inhibits”. For the same compound, the “effect on IL-8 secretion of stimulated keratinocytes” value [4] was “inhibitory effect”.
